# B1: MjATPPase (Methanocaldococcus jannaschii DSM 2661) (protein)
# chain: MFDPKKFIDEAVEEIKQQISDRKAIIALSGGVDSSVAAVLTHKAIGDKLTAVFVDTGLMRKGEREEVEKTFRDKLGLNLIVVDAKDRFLNALKGVTDPEEKRKIIGKLFIDVFEEIAEDIKAEVLVQGTIAPDWIETQGKIKSHHNVALPHGMVLEVVEPLRELYKDEVRLLAKELGLPDSIVYRQPFPGPGLAVRVLGEVTEEKLNICREANAIVEEEVKKANLDKDLWQYFAVVLDCKATGVKGDEREYNWIVALRMVKSLDAMTAHVPEIPFDLLKRISKRITSEIPNVARVVFDITDKPPATIEFE
# B2: MjGMPS (MjATPPase + MjGATase), ATPPase site (Methanocaldococcus jannaschii DSM 2661) (protein)
# chain: B1 chain
# Tests used:
# [1] = system: fused MjGMPS; assay: continuous absorbance at […] nm, GMP formation; format: biochemical, Methanocaldococcus jannaschii; conditions: ATPPase site, pH 7.0, 70 °C
# [2] = substrate: O=c1[nH]c(=O)c2ncn([C@@H]3O[C@H](COP(=O)(O)O)[C@@H](O)[C@H]3O)c2[nH]1; assay: purified protein; format: biochemical, Methanocaldococcus jannaschii; conditions: pH 7.0, 70 °C
molecule,measurement,setting,value
Nc1ncnc2c1ncn2[C@@H]1O[C@H](COP(=O)(O)OP(=O)(O)OP(=O)(O)O)[C@@H](O)[C@H]1O [ATP.Mg^2+],Km,"[1]; Mg2+ complex, saturating XMP",503 ± 6 µM
O=c1[nH]c(=O)c2ncn([C@@H]3O[C@H](COP(=O)(O)O)[C@@H](O)[C@H]3O)c2[nH]1 [XMP],Km,[1]; saturating ATP.Mg2+,44 ± 1 µM
B1,Km,"[2]; NH4Cl dependent, saturating ATP.Mg2+ and NH4Cl",30 ± 2 µM
B2,Km,"[2]; Gln dependent, saturating ATP.Mg2+ and Gln",61 ± 3 µM

# Source: paper doi:10.1101/2022.02.27.481963v1 (biorxiv, 2022)
